# Measured values published in article PMC6934184, “Selective DNA-PKcs inhibition extends the therapeutic index of localized radiotherapy and chemotherapy” (The Journal of Clinical Investigation, 2019).
# Target: T1, INSR (Homo sapiens, UniProt P06213)
# T1 construct: purchased Thermo Fisher Scientific (Life Technologies) SelectScreen
# Experiment: SelectScreen Z'LYTE
# Assay type: biochemical
# Outline: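 Percent values come from Thermo SelectScreen profiling of NU5455, combining activity and binding assays. CSF1R was run in Z'LYTE format at Km app ATP, and CAMK1 in Adapta format with ATP listed at 10.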
# T1 sequence (P06213 28-1382): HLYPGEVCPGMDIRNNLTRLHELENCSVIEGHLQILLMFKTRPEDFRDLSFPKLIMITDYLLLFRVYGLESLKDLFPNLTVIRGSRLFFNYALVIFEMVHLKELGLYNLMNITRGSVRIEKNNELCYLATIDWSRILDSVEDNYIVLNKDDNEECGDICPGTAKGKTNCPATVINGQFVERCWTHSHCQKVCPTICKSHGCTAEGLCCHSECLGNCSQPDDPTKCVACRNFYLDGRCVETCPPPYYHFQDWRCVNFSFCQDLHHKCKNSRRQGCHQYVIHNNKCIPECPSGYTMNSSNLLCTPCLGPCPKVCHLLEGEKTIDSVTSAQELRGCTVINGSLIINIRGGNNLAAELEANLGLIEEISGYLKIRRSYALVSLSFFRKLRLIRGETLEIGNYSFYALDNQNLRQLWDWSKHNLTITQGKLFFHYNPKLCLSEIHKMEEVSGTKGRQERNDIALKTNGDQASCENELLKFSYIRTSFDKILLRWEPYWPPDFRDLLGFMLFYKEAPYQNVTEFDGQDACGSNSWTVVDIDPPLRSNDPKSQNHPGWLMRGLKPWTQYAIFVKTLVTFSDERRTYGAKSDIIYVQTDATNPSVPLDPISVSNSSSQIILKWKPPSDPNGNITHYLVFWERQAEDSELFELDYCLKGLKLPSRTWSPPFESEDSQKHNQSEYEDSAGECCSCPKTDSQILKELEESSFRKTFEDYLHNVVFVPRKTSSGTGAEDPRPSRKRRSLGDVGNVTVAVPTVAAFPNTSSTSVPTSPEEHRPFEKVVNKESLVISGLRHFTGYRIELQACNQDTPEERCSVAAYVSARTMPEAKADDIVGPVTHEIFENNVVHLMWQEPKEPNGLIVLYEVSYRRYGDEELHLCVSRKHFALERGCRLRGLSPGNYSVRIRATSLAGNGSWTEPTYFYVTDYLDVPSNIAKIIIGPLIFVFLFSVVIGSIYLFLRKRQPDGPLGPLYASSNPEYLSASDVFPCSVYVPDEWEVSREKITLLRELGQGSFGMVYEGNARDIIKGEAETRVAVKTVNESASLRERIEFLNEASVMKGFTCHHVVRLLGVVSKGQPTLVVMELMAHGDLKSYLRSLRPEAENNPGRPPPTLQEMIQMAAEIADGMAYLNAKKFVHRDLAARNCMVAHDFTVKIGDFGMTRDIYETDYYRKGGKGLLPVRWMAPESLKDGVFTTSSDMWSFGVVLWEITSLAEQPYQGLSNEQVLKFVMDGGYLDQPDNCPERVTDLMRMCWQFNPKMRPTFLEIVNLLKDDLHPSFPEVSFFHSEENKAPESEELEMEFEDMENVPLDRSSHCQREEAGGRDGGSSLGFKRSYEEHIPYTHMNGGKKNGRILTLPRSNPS
structure (smiles),measurement,value
CN(C(=O)CN1CCOCC1)c1ccc2sc3c(-c4cccc5c(=O)cc(N6CC7CCC(C6)O7)oc45)cccc3c2c1 [NU5455],inhibition at 1 µM,4.1%
